Test results: paper PMC8837781, “Suppression of tumor metastasis by a RECK-activating small molecule” (Scientific Reports, 2022)

Assays:
HDAC1 [1] = target: T1, HDAC1 (Homo sapiens, UniProt Q13547); assay: HDAC1 inhibition assay (details not given); format: biochemical
HDAC3 [2] = target: T2, HDAC3 (Homo sapiens, UniProt O15379); assay: HDAC3 inhibition assay (details not given); format: biochemical
HDAC1 [3] = target: T1, HDAC1; assay: biochemical; set-up: HDAC inhibition assay, IC50; details: read-out: HDAC inhibition (HDAC1)
HDAC3 [4] = target: T2, HDAC3; assay: biochemical; set-up: HDAC inhibition assay, IC50; details: read-out: HDAC inhibition (HDAC3)

T1 sequence (Q13547 whole entry): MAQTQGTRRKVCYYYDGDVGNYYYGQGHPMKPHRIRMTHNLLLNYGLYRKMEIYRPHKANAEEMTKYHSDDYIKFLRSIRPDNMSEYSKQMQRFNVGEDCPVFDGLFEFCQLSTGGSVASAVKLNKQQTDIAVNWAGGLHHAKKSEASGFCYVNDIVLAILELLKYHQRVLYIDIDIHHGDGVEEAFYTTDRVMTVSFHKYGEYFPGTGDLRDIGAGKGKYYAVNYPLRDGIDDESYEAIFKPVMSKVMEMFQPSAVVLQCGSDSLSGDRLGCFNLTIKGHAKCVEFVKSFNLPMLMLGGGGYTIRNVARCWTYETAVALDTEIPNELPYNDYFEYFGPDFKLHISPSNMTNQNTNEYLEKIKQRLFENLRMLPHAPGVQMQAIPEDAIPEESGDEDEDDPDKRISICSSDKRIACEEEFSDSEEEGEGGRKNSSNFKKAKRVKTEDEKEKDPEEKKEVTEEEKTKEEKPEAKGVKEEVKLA
T2 sequence (O15379 whole entry): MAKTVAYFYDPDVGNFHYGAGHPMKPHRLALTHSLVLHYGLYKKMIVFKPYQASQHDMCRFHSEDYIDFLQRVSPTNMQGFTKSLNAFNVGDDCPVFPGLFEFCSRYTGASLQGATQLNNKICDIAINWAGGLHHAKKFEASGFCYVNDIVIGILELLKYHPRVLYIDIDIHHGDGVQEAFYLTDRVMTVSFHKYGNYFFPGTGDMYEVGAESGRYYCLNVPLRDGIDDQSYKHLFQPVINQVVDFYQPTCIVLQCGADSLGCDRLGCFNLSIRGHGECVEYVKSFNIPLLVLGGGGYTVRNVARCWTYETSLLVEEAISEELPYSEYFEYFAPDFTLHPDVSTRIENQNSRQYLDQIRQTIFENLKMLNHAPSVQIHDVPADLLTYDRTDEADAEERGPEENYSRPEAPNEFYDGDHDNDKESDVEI

Row | Compound | IC50 (HDAC1 [1]) [µM] | IC50 (HDAC3 [2]) [µM] | IC50 (HDAC1 [3]) [µM] | IC50 (HDAC3 [4]) [µM]
1 | Cc1ccc(C(=O)Nc2ccccc2N)cc1 [#638, DSK638] | ~5 | ~10 | – | –
2 | Cc1ccc(C(=O)Nc2ccccc2)cc1 [NPMB] | – | – | > 100 | > 100
3 | Cc1ccc(NC(=O)c2ccccc2N)cc1 [NTAB] | – | – | > 100 | > 100

More lines, in order of falling IC50 (HDAC1 [3]), values ahead:

Row | IC50 (HDAC1 [1]) [µM] | IC50 (HDAC3 [2]) [µM] | IC50 (HDAC1 [3]) [µM] | IC50 (HDAC3 [4]) [µM] | Compound
4 | – | – | 8 | 5 | Nc1ccccc1NC(=O)c1ccccc1 [NAPB]
5 | – | – | 3 | 3 | Cc1ccc(C(=O)Nc2ccccc2O)cc1 [NHPMB]
